In ChEMBL document CHEMBL1201862, “PubChem BioAssay data set” (2004):
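Compound exposure: 48 hours, 5 concentrations, 96-well plates. The concentration for 50% growth inhibition is given as GI50.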 Calls of active or inactive are those of the source. No stated cut-off is given here; in the data, active = GI50 up to about 1.1 µM and inactive = higher.

Tests used:
Experiment in all cases: growth of human tumour cells (NCI), 48 h
786-0 = system: 786-0
A549 = system: A549
ACHN = system: ACHN
CAKI-1 = system: CAKI-1
CCRF-CEM = system: CCRF-CEM
COLO 205 = system: COLO 205
DLD-1 = system: DLD-1
DMS-114 = system: DMS-114
DMS-273 = system: DMS-273
EKVX = system: EKVX
HCC 2998 = system: HCC 2998
HCT-15 = system: HCT-15
HL-60 = system: HL-60
HOP-18 = system: HOP-18
HOP-62 = system: HOP-62
HOP-92 = system: HOP-92
HT-29 = system: HT-29
IGROV-1 = system: IGROV-1
K562 = system: K562
KM-20L2 = system: KM-20L2
KM12 = system: KM12
LOX IMVI = system: LOX IMVI
LXFL 529 = system: LXFL 529
M14 = system: M14
M19-MEL = system: M19-MEL
MOLT-4 = system: MOLT-4
Malme-3M = system: Malme-3M
NCI-H23 = system: NCI-H23
NCI-H460 = system: NCI-H460
NCI-H522 = system: NCI-H522
OVCAR-3 = system: OVCAR-3
OVCAR-4 = system: OVCAR-4
OVCAR-5 = system: OVCAR-5
OVCAR-8 = system: OVCAR-8
RPMI-8226 = system: RPMI-8226
RXF 393 = system: RXF 393
RXF 631 = system: RXF 631
SF-268 = system: SF-268
SF-295 = system: SF-295
SF-539 = system: SF-539
SK-MEL-28 = system: SK-MEL-28
SK-MEL-2 = system: SK-MEL-2
SK-MEL-5 = system: SK-MEL-5
SK-OV-3 = system: SK-OV-3
SN12C = system: SN12C
SNB-19 = system: SNB-19
SNB-75 = system: SNB-75
SW-620 = system: SW-620
TK-10 = system: TK-10
U-251 = system: U-251
UACC-257 = system: UACC-257
UACC-62 = system: UACC-62
UO-31 = system: UO-31
A498 = system: A498
HCT-116 = system: HCT-116
NCI-H226 = system: NCI-H226
SNB-78 = system: SNB-78
SR = system: SR

Measured: GI50

CCOC(=O)c1cn(CC)c2cc3c(cc2c1=O)SCS3
inactive: 786-0 > 100 µM | A549 > 100 µM | ACHN > 100 µM | CAKI-1 > 100 µM | CCRF-CEM > 100 µM | COLO 205 > 100 µM | DLD-1 > 100 µM | DMS-114 > 100 µM | DMS-273 > 100 µM | EKVX > 100 µM | HCC 2998 > 100 µM | HL-60 > 100 µM | HOP-18 80 µM | HOP-62 > 100 µM | HOP-92 > 100 µM | HT-29 > 100 µM | IGROV-1 > 100 µM | K562 > 100 µM | KM-20L2 > 100 µM | KM12 > 100 µM | LOX IMVI > 100 µM | LXFL 529 > 100 µM | M14 > 100 µM | M19-MEL > 100 µM | MOLT-4 > 100 µM | Malme-3M > 100 µM | NCI-H23 > 100 µM | NCI-H460 > 100 µM | NCI-H522 > 100 µM | OVCAR-3 > 100 µM | OVCAR-4 > 100 µM | OVCAR-5 > 100 µM | OVCAR-8 > 100 µM | RPMI-8226 > 100 µM | RXF 393 > 100 µM | RXF 631 > 100 µM | SF-268 > 100 µM | SF-295 > 100 µM | SF-539 > 100 µM | SK-MEL-28 > 100 µM | SK-MEL-2 > 100 µM | SK-MEL-5 > 100 µM | SK-OV-3 > 100 µM | SN12C > 100 µM | SNB-19 > 100 µM | SNB-75 52.2 µM | SW-620 > 100 µM | TK-10 > 100 µM | U-251 > 100 µM | UACC-257 > 100 µM | UACC-62 > 100 µM | UO-31 > 100 µM
> 100 µM: HCT-15

CC(C)c1cccc2sc(NC(=O)C(=O)C(C#N)c3cccc4ccccc34)nc12 (stereo not drawn)
inactive: 786-0 > 100 µM | A498 73.3 µM | A549 80.7 µM | ACHN 69.8 µM | CAKI-1 30.5 µM | CCRF-CEM 41.8 µM | COLO 205 > 100 µM | DLD-1 98.6 µM | DMS-114 40.4 µM | DMS-273 90.4 µM | EKVX 10.9 µM | HCC 2998 65.8 µM | HCT-116 76.9 µM | HL-60 30.5 µM | HOP-18 61.2 µM | HOP-62 99.8 µM | HOP-92 30.4 µM | HT-29 77.4 µM | IGROV-1 77.6 µM | KM-20L2 > 100 µM | KM12 > 100 µM | LXFL 529 73.1 µM | M14 > 100 µM | M19-MEL 91.4 µM | MOLT-4 23.1 µM | Malme-3M 73.3 µM | NCI-H226 71.1 µM | NCI-H23 61.5 µM | NCI-H460 > 100 µM | NCI-H522 54.1 µM | OVCAR-3 41.7 µM | OVCAR-4 29.8 µM | OVCAR-8 72.1 µM | RXF 393 25.2 µM | RXF 631 > 100 µM | SF-268 > 100 µM | SF-295 69.7 µM | SF-539 20.7 µM | SK-MEL-28 > 100 µM | SK-MEL-2 45.2 µM | SK-MEL-5 68.1 µM | SK-OV-3 48.4 µM | SN12C > 100 µM | SNB-19 > 100 µM | SNB-75 23.4 µM | SNB-78 93.1 µM | SR 32.4 µM | SW-620 > 100 µM | TK-10 > 100 µM | U-251 57.5 µM | UACC-257 92.3 µM | UACC-62 57.4 µM | UO-31 31.4 µM
75.5 µM: HCT-15

Cc1ccc(N2C(=O)C(=CN)C(=O)N(c3ccc(C)cc3)C2=O)cc1
inactive: 786-0 > 100 µM | A498 84.9 µM | A549 > 100 µM | ACHN 37.9 µM | CAKI-1 31.8 µM | CCRF-CEM 89.9 µM | COLO 205 > 100 µM | DLD-1 46.8 µM | DMS-273 > 100 µM | EKVX > 100 µM | HCC 2998 10 µM | HCT-116 > 100 µM | HL-60 > 100 µM | HOP-18 > 100 µM | HOP-62 44.2 µM | HOP-92 31.1 µM | HT-29 > 100 µM | IGROV-1 71.9 µM | K562 > 100 µM | KM-20L2 > 100 µM | KM12 > 100 µM | LOX IMVI > 100 µM | LXFL 529 > 100 µM | M14 > 100 µM | M19-MEL > 100 µM | MOLT-4 > 100 µM | Malme-3M 47.6 µM | NCI-H226 > 100 µM | NCI-H23 > 100 µM | NCI-H460 > 100 µM | NCI-H522 > 100 µM | OVCAR-3 65.9 µM | OVCAR-4 > 100 µM | OVCAR-5 > 100 µM | OVCAR-8 > 100 µM | RXF 393 91.6 µM | RXF 631 > 100 µM | SF-268 > 100 µM | SF-295 > 100 µM | SF-539 > 100 µM | SK-MEL-28 > 100 µM | SK-MEL-2 66.8 µM | SK-MEL-5 > 100 µM | SK-OV-3 19.2 µM | SN12C 51.6 µM | SNB-19 > 100 µM | SNB-75 13.3 µM | SNB-78 > 100 µM | SR > 100 µM | SW-620 > 100 µM | TK-10 48.4 µM | U-251 10 µM | UACC-257 > 100 µM | UACC-62 68.9 µM | UO-31 53.5 µM
62.1 µM: HCT-15
